Source: ChEMBL document CHEMBL5244205, “Discovery of tricyclic dipyrrolopyridine derivatives as novel JAK inhibitors” (Bioorg Med Chem, 2017)

Experiments:
[1] = target: Dual specificity mitogen-activated protein kinase kinase 1 (Homo sapiens, UniProt Q02750); test: Inhibition of MAP2K1 (unknown origin)
[2] = target: T1, Tyrosine-protein kinase JAK3 (Homo sapiens, UniProt P52333)
T1 sequence (P52333 whole entry): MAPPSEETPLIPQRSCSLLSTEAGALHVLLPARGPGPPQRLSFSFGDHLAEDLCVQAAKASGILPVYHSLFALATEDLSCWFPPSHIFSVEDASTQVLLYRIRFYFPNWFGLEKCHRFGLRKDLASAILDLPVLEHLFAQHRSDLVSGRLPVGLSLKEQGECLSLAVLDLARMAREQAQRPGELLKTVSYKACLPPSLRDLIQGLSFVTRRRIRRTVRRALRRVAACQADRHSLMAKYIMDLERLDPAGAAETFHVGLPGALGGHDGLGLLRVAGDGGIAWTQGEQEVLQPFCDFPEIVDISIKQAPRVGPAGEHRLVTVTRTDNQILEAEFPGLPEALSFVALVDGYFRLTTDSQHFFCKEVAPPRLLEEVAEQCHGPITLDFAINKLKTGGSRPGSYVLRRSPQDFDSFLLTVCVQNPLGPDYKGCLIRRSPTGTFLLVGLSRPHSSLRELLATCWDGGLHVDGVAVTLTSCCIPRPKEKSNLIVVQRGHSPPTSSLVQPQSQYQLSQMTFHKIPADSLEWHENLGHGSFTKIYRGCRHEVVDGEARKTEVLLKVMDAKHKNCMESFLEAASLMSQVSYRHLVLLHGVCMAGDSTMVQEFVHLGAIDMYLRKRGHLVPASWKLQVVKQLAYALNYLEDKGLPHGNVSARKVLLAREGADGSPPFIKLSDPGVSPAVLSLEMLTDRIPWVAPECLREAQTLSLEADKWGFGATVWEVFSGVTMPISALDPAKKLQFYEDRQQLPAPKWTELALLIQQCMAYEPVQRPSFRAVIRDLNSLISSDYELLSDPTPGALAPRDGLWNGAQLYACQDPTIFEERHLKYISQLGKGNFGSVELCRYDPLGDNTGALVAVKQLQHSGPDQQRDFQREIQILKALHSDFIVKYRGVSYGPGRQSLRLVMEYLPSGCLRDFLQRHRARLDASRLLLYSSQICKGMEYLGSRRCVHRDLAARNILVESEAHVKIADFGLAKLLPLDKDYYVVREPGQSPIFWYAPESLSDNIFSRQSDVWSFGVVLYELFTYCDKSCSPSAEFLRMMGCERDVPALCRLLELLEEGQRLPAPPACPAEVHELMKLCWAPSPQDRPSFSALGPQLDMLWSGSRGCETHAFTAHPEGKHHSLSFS
Description: Inhibition of human JAK3 kinase domain using biotin-Lyn-substrate-2 as substrate incubated for 1 hr by ELISA

[3] = target: Epidermal growth factor receptor (Homo sapiens, UniProt P00533); test: Inhibition of EGFR (unknown origin)
[4] = Half life in Sprague-Dawley rat at 1 mg/kg, po measured up to 24 hrs by LC-MS/MS analysis; assay type: ADME, organism-based; conditions: in vivo
[5] = Volume of distribution in Sprague-Dawley rat at 1 mg/kg, iv measured up to 24 hrs by LC-MS/MS analysis; assay type: ADME, organism-based; conditions: in vivo

Sequence of Epidermal growth factor receptor (P00533 whole entry): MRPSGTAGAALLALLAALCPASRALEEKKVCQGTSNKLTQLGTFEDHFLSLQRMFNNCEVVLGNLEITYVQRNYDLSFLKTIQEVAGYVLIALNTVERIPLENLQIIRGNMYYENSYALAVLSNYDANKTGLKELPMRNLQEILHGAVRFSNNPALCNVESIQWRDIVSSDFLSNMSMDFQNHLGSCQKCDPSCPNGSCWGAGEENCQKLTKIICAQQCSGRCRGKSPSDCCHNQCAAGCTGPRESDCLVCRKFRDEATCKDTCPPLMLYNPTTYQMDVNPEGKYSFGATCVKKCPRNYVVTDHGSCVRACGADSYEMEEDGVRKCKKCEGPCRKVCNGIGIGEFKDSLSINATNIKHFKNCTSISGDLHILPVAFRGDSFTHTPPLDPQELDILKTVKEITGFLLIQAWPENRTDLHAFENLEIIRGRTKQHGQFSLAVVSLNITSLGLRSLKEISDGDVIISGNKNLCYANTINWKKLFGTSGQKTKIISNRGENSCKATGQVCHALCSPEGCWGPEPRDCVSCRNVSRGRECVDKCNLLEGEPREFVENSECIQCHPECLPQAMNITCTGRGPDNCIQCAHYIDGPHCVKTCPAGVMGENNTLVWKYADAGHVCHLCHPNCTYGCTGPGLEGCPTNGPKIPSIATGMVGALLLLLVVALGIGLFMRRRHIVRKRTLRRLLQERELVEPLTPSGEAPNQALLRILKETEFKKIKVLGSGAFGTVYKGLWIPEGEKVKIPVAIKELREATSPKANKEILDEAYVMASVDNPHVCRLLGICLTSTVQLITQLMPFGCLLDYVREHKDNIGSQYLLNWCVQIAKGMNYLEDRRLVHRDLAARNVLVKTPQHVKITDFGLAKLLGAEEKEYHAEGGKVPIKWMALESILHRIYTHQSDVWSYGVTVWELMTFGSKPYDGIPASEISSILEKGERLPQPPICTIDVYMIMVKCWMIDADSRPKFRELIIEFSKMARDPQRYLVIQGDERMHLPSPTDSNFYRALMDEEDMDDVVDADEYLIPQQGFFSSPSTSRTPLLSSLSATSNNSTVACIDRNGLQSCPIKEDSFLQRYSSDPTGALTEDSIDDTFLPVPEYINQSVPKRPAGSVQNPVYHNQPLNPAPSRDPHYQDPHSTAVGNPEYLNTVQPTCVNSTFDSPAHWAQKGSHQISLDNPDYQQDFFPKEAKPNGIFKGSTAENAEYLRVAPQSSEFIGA
Sequence of Dual specificity mitogen-activated protein kinase kinase 1 (Q02750 whole entry): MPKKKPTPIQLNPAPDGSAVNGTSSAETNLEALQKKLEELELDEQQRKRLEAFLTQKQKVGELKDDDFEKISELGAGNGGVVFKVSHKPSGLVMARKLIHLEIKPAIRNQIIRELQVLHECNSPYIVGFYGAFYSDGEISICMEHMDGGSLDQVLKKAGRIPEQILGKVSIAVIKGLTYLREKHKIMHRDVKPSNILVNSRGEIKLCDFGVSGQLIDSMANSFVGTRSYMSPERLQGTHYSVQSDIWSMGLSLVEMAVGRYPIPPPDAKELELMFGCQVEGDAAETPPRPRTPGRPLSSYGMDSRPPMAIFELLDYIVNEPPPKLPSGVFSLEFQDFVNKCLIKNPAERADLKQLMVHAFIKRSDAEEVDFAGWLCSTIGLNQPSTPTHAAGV

`C[C@@H]1CCN(C(=O)CC#N)C[C@@H]1n1ccc2cnc3[nH]ccc3c21` showed an IC50 [1] greater than 1000 nM, an IC50 [2] of 0.14 nM and an IC50 [3] greater than 1000 nM. It also gave a half-life [4] of 2.58 h and a Vd [5] of 1.52 L/kg.
